Measurements taken from PMC12498190, “A Photocaged N‐Phosphonopiperidinone as a Selective Photo‐Cleavable DPP8/9 Inhibitor” (Chembiochem, 2025).

Tests used:
[1] = biological target: DPP9 (Homo sapiens, UniProt Q86TI2); assay: In vitro gel-based competitive ABPP in HEK293 cell lysates, 100 kDa band; design: endogenous in cells; host or cells: HEK293 (Cytion, Germany, 300192); conditions: HEK293 lysate; 10 µM probe, 1 h; ca. 100 kDa (DPP9) and 70 kDa (PREP); regardless of irradiation
Method: Therefore, HEK293 cell lysates were pre‐incubated with 10 µM 5 or DMSO vehicle control for 30 min, followed by a labeling reaction with 2 µM of the serine hydrolase‐specific ABP fluorophosphonate‐alkyne (≡FP) or 10 µM 2 (Figure 2B). […] Of note, this band has been previously assigned as DPP9 (DPP8 would migrate in the same range, but is only expressed at low levels in the used cell line and therefore cannot be visualized by this approach).^[ [36] ^, [37] ^] […] Again, this labeling was observed regardless of prior irradiation. Subsequently, the competitive labeling experiment was conducted by pre‐incubation with compound 5, with or without subsequent irradiation.
(§1) Figure 2 Competitive ABPP with photo‐cleavable inhibitor 5 in HEK293 cells. A) Schematic overview of a competitive ABPP experiment. A proteome is pre‐incubated with a competitor, followed by a labeling reaction with an activity‐based probe (ABP). In the case of a photocaged inhibitor, the active compound can be released via irradiation. Target proteins of the competitor cannot be bound by the ABP, resulting in an absence of the respective protein band in‐gel analysis. Created in BioRender. Najdzion, M. (2025) https://BioRender.com/84zn8cb B) Gel‐based competitive ABPP experiment in HEK293 cell lysates with the broadband serine hydrolase ABP ≡FP or the DPP8/9‐directed ABP 2 and the photocaged inhibitor 5, at the indicated concentrations, after or without prior irradiation with green light for 5 min. The corresponding pre‐incubation time for 5 was 30 min. C) Corresponding in situ competitive ABPP experiment in HEK293 cell culture, again with 10 µM 2 for 1 h. Labeling was competed by pre‐incubation with 20 µM 5 for 1 h, followed by an activation of the photocaged inhibitor by irradiation for 5 min with a green LED lamp, if applicable. D) Green light treatment has no cytotoxic effect. HEK293 cells were irradiated with a green LED lamp in the presence of 0.5% DMSO for 5 min (‘light’), and cell viability was measured after 24 h. […] Data was normalized to the non‐irradiated control (‘dark’). E) Green light treatment leads to the release of the active DPP8/9 inhibitor. HEK293 cells were incubated with compound 1 or 5 for 24 h. For both compounds, cell viability was measured under ‘dark’ (not irradiated) and ‘light’ (irradiated for 5 min with a green LED lamp after the addition of the inhibitor) conditions. […] Data was normalized to the non‐irradiated DMSO control.
For in vitro ABPP, cell lysates were generated from HEK293 cells grown on a 10 cm tissue dish. […] The cell lysates were cleared via centrifugation (30 min, 20,817 × g, 4 °C), and protein concentration was determined with a modified Bradford assay using Roti‐Nanoquant (Carl Roth, Germany). […]

[2] = format: physicochemical; conditions: longer irradiation times, green LED 520-530 nm, up to 5 min
Method: With 5 in our hands, we then started our probe characterization by determining the velocity of the photorelease reaction, i.e., the light‐triggered cleavage of the photocage, thereby delivering again the “active” inhibitor 1. To this end, a 50 µM solution of 5 in 10% acetonitrile in MS‐grade water was irradiated with a green LED lamp (λ = 520‐530 nm, 30 W) for the indicated time periods, and the release of the active inhibitor 1 was quantified via liquid chromatography‐mass spectrometry (LC–MS) analysis (Figure 1A). […] After 3 min, cleavage was quantitative (>99%). Importantly, the only products observed were the desired ‘free’ inhibitor 1 and the cleaved photogroup, indicating a clean activation to 1.
Figure 1 DPP inhibition by photo‐cleavable inhibitors. A) LC‐MS analysis of the photocleavage reaction of 5 after irradiation with green light. 50 µM of compound 5 was irradiated with a green LED lamp (λ = 520‐530 nm, 30 W) for up to 5 min, and the resulting reaction mixture was analyzed via LC‐MS. […] B) Resulting quantification of the photolysis of 5 based on peak areas depicted in A) (n = 3 technical replicates). […] Enzyme activity was determined by measuring the release of AMC from the substrate GP‐AMC. […]
Compound 5 was dissolved in DMSO. In order to quantify the effect of irradiation time on photocleavage of the BODIPY moiety, 50 µL aliquots of a 50 µM solution of 5 in 10% acetonitrile (ACN; VWR Chemicals, USA) in MS‐grade water (VWR Chemicals, USA) were irradiated for 0–5 min with a green LED lamp (λ = 520–530 nm, 30 W; Eurolite, Germany) at room temperature (RT) and gentle shaking (final DMSO concentration: 0.5%).
Quantification of inhibitor release was then determined via LC‐MS on an LTQ XL linear ion trap mass spectrometer (ITMS; Thermo Fisher Scientific, USA) coupled to a DIONEX UltiMate 3000 system (Thermo Fisher Scientific, USA), operated using Xcalibur software 4.4.16.14. […] Quantification was done using Freestyle v1.6. based on the UV spectra (λ = 254 nm) using the Avalon peak detection algorithm. […]

[3] = tested on: HEK293 cells; assay: Cell viability assay (MTT); format: cell-based, human; conditions: low micromolar range, 24 h
Method: as §1
(§2) In order to validate target engagement in living cells and potential cytotoxic effects of green light treatment, we determined cell viability of HEK293 cells after 24 h inhibitor treatment with 5 with or without 5 min green light irradiation, as the application of DPP8/9 inhibitors at high concentrations and thus elimination of any residual DPP8/9 activity results in cytotoxicity.^[ [38], [39] ^– [40] ^] As a control, effects of green light treatment on cell viability were examined in the absence of any inhibitor after 24 h, again with or without 5 min irradiation (Figure 2D). […] Of note, no additional effect of the photocage on cell viability was observed. In summary, our cell viability studies confirm target engagement in live cells exclusively after photorelease, thereby again confirming the suitability of the photocaged DPP8/9 inhibitor 5 as a cell biological tool compound.
(§3) To investigate the cytotoxicity of compounds, 2 × 10^4 HEK293 cells were cultured in DMEM (+/+) on 96‐well flat‐bottom cell culture plates (Sarstedt, Germany) as described above. After 24 h, cells were treated with indicated concentrations of compounds (final DMSO concentration: 0.5%) and, if applicable, irradiated with a green LED lamp (λ = 520−530 nm; Eurolite, Germany) for 5 min. Control cells were treated with DMSO. Cell viability was measured 24 h after compound treatment. To this end, 25 µL Thiazolyl Blue Tetrazolium Bromide (MTT) solution (5 mg mL^−1 MTT (Sigma Aldrich, USA) in PBS (Gibco, USA)) was added to each well directly into the medium. After 3 h of incubation at 37 °C, the medium was removed and formazan crystals were dissolved by adding 150 µL DMSO (1 h, 37 °C, gentle shaking), followed by an absorbance measurement at 570 and 630 nm as a reference using a Tecan Spark 10 M multimode microplate reader (Tecan Group Ltd., Switzerland). Each experiment was performed with five replicates. Relative cell viability was expressed as a percentage relative to the DMSO‐treated control cells.

[4] = Cell viability assay (MTT); format: cell-based, human; conditions: human, HEK293 cells, regardless of irradiation, read-out: Remaining viability
Method: as §1, §2, §3

Sequence of DPP9 (Q86TI2 whole entry): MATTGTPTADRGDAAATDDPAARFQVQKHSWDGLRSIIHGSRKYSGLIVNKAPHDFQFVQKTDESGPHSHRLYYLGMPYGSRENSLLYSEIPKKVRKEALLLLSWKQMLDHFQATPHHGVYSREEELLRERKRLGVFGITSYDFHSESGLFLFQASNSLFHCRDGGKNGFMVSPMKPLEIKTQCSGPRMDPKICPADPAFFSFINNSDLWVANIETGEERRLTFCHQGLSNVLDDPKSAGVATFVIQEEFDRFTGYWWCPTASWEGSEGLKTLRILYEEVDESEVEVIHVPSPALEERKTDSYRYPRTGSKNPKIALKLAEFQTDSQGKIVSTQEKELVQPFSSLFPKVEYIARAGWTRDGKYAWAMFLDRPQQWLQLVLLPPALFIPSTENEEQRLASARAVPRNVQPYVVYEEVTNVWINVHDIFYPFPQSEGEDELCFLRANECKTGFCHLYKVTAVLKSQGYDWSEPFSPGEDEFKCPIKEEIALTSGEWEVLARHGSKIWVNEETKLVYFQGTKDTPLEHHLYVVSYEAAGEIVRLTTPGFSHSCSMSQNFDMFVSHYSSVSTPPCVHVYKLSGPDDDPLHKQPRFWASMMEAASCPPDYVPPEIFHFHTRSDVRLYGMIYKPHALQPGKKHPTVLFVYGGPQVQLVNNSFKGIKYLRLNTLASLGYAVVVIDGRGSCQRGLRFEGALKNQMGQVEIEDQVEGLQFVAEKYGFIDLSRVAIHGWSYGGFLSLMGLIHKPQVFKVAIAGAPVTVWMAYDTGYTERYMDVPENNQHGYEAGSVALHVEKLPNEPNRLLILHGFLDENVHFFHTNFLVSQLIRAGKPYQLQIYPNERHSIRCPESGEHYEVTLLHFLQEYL

SMILES	Bands labeled by the probe in ABPP (in words) [1]	Photostability under photorelease conditions (in words) [2]	Effect on cell viability (in words) [3]	viability at 24 h, 25 µM ([4]; 25 µM)	viability at 24 h, 50 µM ([4]; 50 µM)
C#CCCCP(=O)(OCC)N1CCC[C@H](N)C1=O (some centres unmarked) [Compound 2]	two bands	–	–	–	–
CCCCCc1ccc(SCCP(=O)(OCC)N2CCC[C@H](N)C2=O)cc1 (some centres unmarked) [Compound 1]	–	did not lead to further side products	did not significantly affect cell viability	~65%	~15%
